Laboratory results reported in US8288552B2, “Dihydropyridone amidesas P2X7 modulators” (Roche Palo Alto LLC, priority 2008, dated 2012).

molecular target: T1, P2X7 (UniProt Q99572); assay: P2X7 pKi of Table 1; type: cell-based
T1 sequence (Q99572 1-595): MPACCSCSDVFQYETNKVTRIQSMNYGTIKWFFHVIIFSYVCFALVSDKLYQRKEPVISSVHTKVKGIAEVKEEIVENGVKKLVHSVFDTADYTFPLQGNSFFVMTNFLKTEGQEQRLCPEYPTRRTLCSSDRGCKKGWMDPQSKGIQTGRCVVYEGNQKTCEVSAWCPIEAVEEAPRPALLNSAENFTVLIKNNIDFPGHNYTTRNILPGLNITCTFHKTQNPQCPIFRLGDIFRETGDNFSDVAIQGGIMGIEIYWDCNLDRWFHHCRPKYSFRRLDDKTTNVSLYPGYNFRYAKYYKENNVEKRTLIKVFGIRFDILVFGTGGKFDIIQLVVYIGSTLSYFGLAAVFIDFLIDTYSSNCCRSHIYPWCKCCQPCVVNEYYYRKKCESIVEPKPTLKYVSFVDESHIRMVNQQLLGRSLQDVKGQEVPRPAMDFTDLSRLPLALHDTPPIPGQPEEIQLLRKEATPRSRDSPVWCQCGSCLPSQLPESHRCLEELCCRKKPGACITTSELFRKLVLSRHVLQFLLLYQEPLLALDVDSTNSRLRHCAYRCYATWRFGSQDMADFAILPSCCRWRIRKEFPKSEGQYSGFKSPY
Method in brief: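 Human P2X7 in 1321N1 cells and rat P2X7 in HEK293 cells, loaded with fluo-3 for 1 hr at 37° C, then exposed to antagonist for 20 min at room temperature. BzATP agonist was used at 100 μM final (human) or 5 μM final (rat), with fluorescence read for 5 min. The response was normalized to maximal fluorescence evoked by 5 μM ionomycin.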

| pKi | SMILES |
| --- | --- |
| 6.803 | Cc1c(CCO)cccc1NC(=O)C1=CNC(=O)C[C@H]1c1ccc(F)cc1 [Compound 100, (S)-4-(4-Fluoro-phenyl)-6-oxo-1,4,5,6-tetrahydro-pyridine-3-carboxylic acid[3-(2-hydroxy-ethyl)-2-methyl-phenyl]-amide] |
| 6.415 | Cc1ccccc1NC(=O)C1=CNC(=O)C[C@H]1c1ccc(F)cc1 [Compound 101, (S)-4-(4-Fluoro-phenyl)-6-oxo-1,4,5,6-tetrahydro-pyridine-3-carboxylic acid o-tolylamide] |
| 7.316 | CCc1c(NC(=O)C2=CNC(=O)CC2c2ccc(F)cc2)cccc1OC (stereo not drawn) [Compound 102, 4-(4-Fluoro-phenyl)-6-oxo-1,4,5,6-tetrahydro-pyridine-3-carboxylic acid(2-ethyl-3-methoxy-phenyl)-amide] |
| 7.44 | Cc1cccc(NC(=O)C2=CNC(=O)C[C@H]2c2ccc(F)cc2)c1Cl [Compound 103, (S)-4-(4-Fluoro-phenyl)-6-oxo-1,4,5,6-tetrahydro-pyridine-3-carboxylic acid(2-chloro-3-methyl-phenyl)-amide] |
| 7.21 | Cc1cc(Cl)c(CO)cc1NC(=O)C1=CNC(=O)C[C@H]1c1ccc(F)cc1 [Compound 104, (S)-4-(4-Fluoro-phenyl)-6-oxo-1,4,5,6-tetrahydro-pyridine-3-carboxylic acid(4-chloro-5-hydroxymethyl-2-methyl-phenyl)-amide] |
| 6.77 | Cc1cc(CCO)ccc1NC(=O)C1=CNC(=O)C[C@H]1c1ccc(F)cc1 [Compound 105, (S)-4-(4-Fluoro-phenyl)-6-oxo-1,4,5,6-tetrahydro-pyridine-3-carboxylic acid[4-(2-hydroxy-ethyl)-2-methyl-phenyl]-amide] |
| 7.375 | COc1cccc(NC(=O)C2=CNC(=O)C[C@H]2c2ccc(F)cc2)c1C [Compound 106, (S)-4-(4-Fluoro-phenyl)-6-oxo-1,4,5,6-tetrahydro-pyridine-3-carboxylic acid(3-methoxy-2-methyl-phenyl)-amide] |
| 5.36 | Cc1c(CO)cccc1NC(=O)C1=CNC(=O)C[C@@H]1c1ccc(F)cc1 [Compound 107, (R)-4-(4-Fluoro-phenyl)-6-oxo-1,4,5,6-tetrahydro-pyridine-3-carboxylic acid(3-hydroxymethyl-2-methyl-phenyl)-amide] |
| 6.11 | COc1cc(NC(=O)C2=CNC(=O)C[C@H]2c2ccc(F)cc2)ccc1F [Compound 108, (S)-4-(4-Fluoro-phenyl)-6-oxo-1,4,5,6-tetrahydro-pyridine-3-carboxylic acid(4-fluoro-3-methoxy-phenyl)-amide] |
| 7.15 | COc1cc(NC(=O)C2=CNC(=O)C[C@H]2c2ccc(F)cc2)c(Br)cc1F [Compound 109, (S)-4-(4-Fluoro-phenyl)-6-oxo-1,4,5,6-tetrahydro-pyridine-3-carboxylic acid(2-bromo-4-fluoro-5-methoxy-phenyl)-amide] |
| 5.43 | Cc1c(NC(=O)C2=CNC(=O)C[C@H]2c2ccc(F)cc2)cccc1C(=O)N(C)C [Compound 110, (S)-4-(4-Fluoro-phenyl)-6-oxo-1,4,5,6-tetrahydro-pyridine-3-carboxylic acid(3-dimethylcarbamoyl-2-methyl-phenyl)-amide] |
| 6.5 | COc1ccc(NC(=O)C2=CNC(=O)C[C@H]2c2ccc(F)cc2)c(C)c1 [Compound 111, (S)-4-(4-Fluoro-phenyl)-6-oxo-1,4,5,6-tetrahydro-pyridine-3-carboxylic acid(4-methoxy-2-methyl-phenyl)-amide] |
| 7.52 | Cc1cc(Cl)c(CCO)cc1NC(=O)C1=CNC(=O)C[C@H]1c1ccc(F)cc1 [Compound 112, (S)-4-(4-Fluoro-phenyl)-6-oxo-1,4,5,6-tetrahydro-pyridine-3-carboxylic acid[4-chloro-5-(2-hydroxy-ethyl)-2-methyl-phenyl]-amide] |
| 8.035 | COc1cc(C)c(C)c(NC(=O)C2=CNC(=O)C[C@H]2c2ccc(F)cc2)c1 [Compound 113, (S)-4-(4-Fluoro-phenyl)-6-oxo-1,4,5,6-tetrahydro-pyridine-3-carboxylic acid(5-methoxy-2,3-dimethyl-phenyl)-amide] |
| 7.815 | Cc1cc(C)c(OCCO)cc1NC(=O)C1=CNC(=O)C[C@H]1c1ccc(F)cc1 [Compound 114, (S)-4-(4-Fluoro-phenyl)-6-oxo-1,4,5,6-tetrahydro-pyridine-3-carboxylic acid [5-(2-hydroxy-ethoxy)-2,4-dimethyl-phenyl]-amide] |
| 5.815 | Cc1c(C#N)cccc1NC(=O)C1=CNC(=O)C[C@H]1c1ccc(F)cc1 [Compound 115, (S)-4-(4-Fluoro-phenyl)-6-oxo-1,4,5,6-tetrahydro-pyridine-3-carboxylic acid(3-cyano-2-methyl-phenyl)-amide] |
| 7.21 | Cc1cc(Cl)c(OCC(C)O)cc1NC(=O)C1=CNC(=O)C[C@H]1c1cccc(F)c1 (stereo partly drawn) [Compound 116, (S)-4-(3-Fluoro-phenyl)-6-oxo-1,4,5,6-tetrahydro-pyridine-3-carboxylic acid[4-chloro-5-(2-hydroxy-propoxy)-2-methyl-phenyl]-amide] |
| 7.06 | Cc1cc(Cl)c(OCC(C)O)cc1NC(=O)C1=CNC(=O)C[C@H]1c1cccc(F)c1 (stereo partly drawn) [Compound 117, (S)-4-(3-Fluoro-phenyl)-6-oxo-1,4,5,6-tetrahydro-pyridine-3-carboxylic acid[4-chloro-5-(2-hydroxy-propoxy)-2-methyl-phenyl]-amide] |
| 7.075 | CCc1cc(Cl)c(OC)cc1NC(=O)C1=CNC(=O)C[C@H]1c1ccc(F)cc1 [Compound 118, (S)-4-(4-Fluoro-phenyl)-6-oxo-1,4,5,6-tetrahydro-pyridine-3-carboxylic acid(4-chloro-2-ethyl-5-methoxy-phenyl)-amide] |
| 7.2 | Cc1ccc(C(C)O)cc1NC(=O)C1=CNC(=O)C[C@H]1c1cccc(F)c1 (stereo partly drawn) [Compound 119, (S)-4-(3-Fluoro-phenyl)-6-oxo-1,4,5,6-tetrahydro-pyridine-3-carboxylic acid[5-(1-hydroxy-ethyl)-2-methyl-phenyl]-amide] |
| 6.635 | Cc1ccc(NC(=O)C2=CNC(=O)C[C@H]2c2cccc(F)c2)cc1C(C)O (stereo partly drawn) [Compound 120, (S)-4-(3-Fluoro-phenyl)-6-oxo-1,4,5,6-tetrahydro-pyridine-3-carboxylic acid[3-(1-hydroxy-ethyl)-4-methyl-phenyl]-amide] |
| 7.41 | Cc1c(NC(=O)C2=CNC(=O)C[C@H]2c2ccc(F)cc2)cc(OCCO)c(F)c1F [Compound 121, (S)-4-(4-Fluoro-phenyl)-6-oxo-1,4,5,6-tetrahydro-pyridine-3-carboxylic acid [3,4-difluoro-5-(2-hydroxy-ethoxy)-2-methyl-phenyl]-amide] |
| 6.465 | COc1cc(C)c(NC(=O)C2=CNC(=O)CC2c2ccc(Cl)cc2)cc1OC (stereo not drawn) [Compound 122, 4-(4-Chloro-phenyl)-6-oxo-1,4,5,6-tetrahydro-pyridine-3-carboxylic acid(4,5-dimethoxy-2-methyl-phenyl)-amide] |
| 7.293 | CCc1cc(Cl)c(OCCO)cc1NC(=O)C1=CNC(=O)C[C@H]1c1ccc(F)cc1 [Compound 123, (S)-4-(4-Fluoro-phenyl)-6-oxo-1,4,5,6-tetrahydro-pyridine-3-carboxylic acid[4-chloro-2-ethyl-5-(2-hydroxy-ethoxy)-phenyl]-amide] |
